Test results reported in PubChem BioAssay AID2060512 (Molecular Pharmacology Branch, DTP, NCI, 2025).
pIC50: −log10 of the molar value.

Test system: 186277-243-T-J2-PDC complex spheroid viability
Experiment: Anticancer human tumor 186277-243-T-J2-PDC patient-derived colon adenocarcinoma cell line growth inhibition [GQUAD]
Conditions: for pIC50: curve of first compound; for viability, T/C: stronger effect = lower value
Outline: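 Multi-cell-type spheroids of tumor cells with HUVEC and mesenchymal stem cells, treated with drug combinations. Concentrations descend in half-log steps from near clinical Cmax, or from 10 microM where Cmax is unknown; viability read-out.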

[1] = second compound 0.0316 µM, first compound 0.0316 µM
[2] = second compound 0.0316 µM, first compound 0.1 µM
[3] = second compound 0.0316 µM, first compound 0.316 µM
[4] = second compound 0.0316 µM, first compound 1 µM
[5] = second compound 0.0316 µM, first compound 3.16 µM
[6] = second compound 0.0316 µM, first compound 10 µM
[7] = second compound 0.1 µM, first compound 0.0316 µM
[8] = second compound 0.1 µM, first compound 0.1 µM
[9] = second compound 0.1 µM, first compound 0.316 µM
[10] = second compound 0.1 µM, first compound 1 µM
[11] = second compound 0.1 µM, first compound 3.16 µM
[12] = second compound 0.1 µM, first compound 10 µM
[13] = second compound 0.316 µM, first compound 0.0316 µM
[14] = second compound 0.316 µM, first compound 0.1 µM
[15] = second compound 0.316 µM, first compound 0.316 µM
[16] = second compound 0.316 µM, first compound 1 µM
[17] = second compound 0.316 µM, first compound 3.16 µM
[18] = second compound 0.316 µM, first compound 10 µM
[19] = second compound 1 µM, first compound 0.0316 µM
[20] = second compound 1 µM, first compound 0.1 µM
[21] = second compound 1 µM, first compound 0.316 µM
[22] = second compound 1 µM, first compound 1 µM
[23] = second compound 1 µM, first compound 3.16 µM
[24] = second compound 1 µM, first compound 10 µM
[25] = second compound 3.16 µM, first compound 0.0316 µM
[26] = second compound 3.16 µM, first compound 0.1 µM
[27] = second compound 3.16 µM, first compound 0.316 µM
[28] = second compound 3.16 µM, first compound 1 µM
[29] = second compound 3.16 µM, first compound 3.16 µM
[30] = second compound 3.16 µM, first compound 10 µM
[31] = second compound 10 µM, first compound 0.0316 µM
[32] = second compound 10 µM, first compound 0.1 µM
[33] = second compound 10 µM, first compound 0.316 µM
[34] = second compound 10 µM, first compound 1 µM
[35] = second compound 10 µM, first compound 3.16 µM
[36] = second compound 10 µM, first compound 10 µM
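Note: spheroids exposed to drugs for 7 days.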
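Throughout, for viability, T/C: 100% = DMSO vehicle control viability.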

C=CCn1c(=O)c2cnc(Nc3ccc(N4CCN(C)CC4)cc3)nc2n1-c1cccc(C(C)(C)O)n1 + CN(C)c1ccc(Nc2c3ccc(NC(=O)CCN4CCCC4)cc3nc3cc(NC(=O)CCN4CCCC4)ccc23)cc1
pIC50 (second compound 0.0316 µM): 6.76 | pIC50 (second compound 0.1 µM): 6.76 | pIC50 (second compound 0.316 µM): 6.70 | pIC50 (second compound 1 µM): 6.72 | pIC50 (second compound 3.16 µM): 6.75 | pIC50 (second compound 10 µM): 6.74 | viability, T/C [1]: 107% | viability, T/C [2]: 81.7% | viability, T/C [3]: 15.5% | viability, T/C [4]: 10.1% | viability, T/C [5]: 9.78% | viability, T/C [6]: 13% | viability, T/C [7]: 106% | viability, T/C [8]: 83.8% | viability, T/C [9]: 14.5% | viability, T/C [10]: 8.74% | viability, T/C [11]: 8.46% | viability, T/C [12]: 11.9% | viability, T/C [13]: 96.8% | viability, T/C [14]: 94.4% | viability, T/C [15]: 20.9% | viability, T/C [16]: 8.7% | viability, T/C [17]: 9.7% | viability, T/C [18]: 12.2% | viability, T/C [19]: 93.1% | viability, T/C [20]: 99.1% | viability, T/C [21]: 13% | viability, T/C [22]: 9.53% | viability, T/C [23]: 9.39% | viability, T/C [24]: 12.5% | viability, T/C [25]: 110% | viability, T/C [26]: 85.3% | viability, T/C [27]: 15.4% | viability, T/C [28]: 10.1% | viability, T/C [29]: 9.74% | viability, T/C [30]: 14.9% | viability, T/C [31]: 101% | viability, T/C [32]: 88.6% | viability, T/C [33]: 16% | viability, T/C [34]: 10.1% | viability, T/C [35]: 8.2% | viability, T/C [36]: 12.7%

COc1ncnc(C2CC2)c1-c1ncc2cnn(Cc3ccc(-c4nc(C(F)(F)F)cn4C(C)C)cc3)c2n1 + CN(C)c1ccc(Nc2c3ccc(NC(=O)CCN4CCCC4)cc3nc3cc(NC(=O)CCN4CCCC4)ccc23)cc1
pIC50 (second compound 0.0316 µM): < 5.00 | pIC50 (second compound 0.1 µM): < 5.00 | pIC50 (second compound 0.316 µM): < 5.00 | pIC50 (second compound 1 µM): < 5.00 | pIC50 (second compound 3.16 µM): < 5.00 | pIC50 (second compound 10 µM): < 5.00 | viability, T/C [1]: 106% | viability, T/C [2]: 102% | viability, T/C [3]: 101% | viability, T/C [4]: 101% | viability, T/C [5]: 106% | viability, T/C [6]: 98.1% | viability, T/C [7]: 102% | viability, T/C [8]: 93.2% | viability, T/C [9]: 105% | viability, T/C [10]: 94.8% | viability, T/C [11]: 99% | viability, T/C [12]: 98.2% | viability, T/C [13]: 92.8% | viability, T/C [14]: 110% | viability, T/C [15]: 105% | viability, T/C [16]: 98.7% | viability, T/C [17]: 103% | viability, T/C [18]: 85.6% | viability, T/C [19]: 100% | viability, T/C [20]: 114% | viability, T/C [21]: 101% | viability, T/C [22]: 107% | viability, T/C [23]: 112% | viability, T/C [24]: 84.3% | viability, T/C [25]: 99.1% | viability, T/C [26]: 98% | viability, T/C [27]: 113% | viability, T/C [28]: 108% | viability, T/C [29]: 118% | viability, T/C [30]: 95% | viability, T/C [31]: 111% | viability, T/C [32]: 116% | viability, T/C [33]: 106% | viability, T/C [34]: 99.2% | viability, T/C [35]: 105% | viability, T/C [36]: 53.8%

CC(C)n1c(=O)n(C)c2cnc3cc(F)c(-c4ccc(OCCCN5CCCCC5)nc4)cc3c21 + Cc1[nH]c2ccc(F)cc2c1-c1nc2c3cccnc3c3ncccc3c2[nH]1
pIC50 (second compound 0.0316 µM): < 5.00 | pIC50 (second compound 0.1 µM): < 5.00 | pIC50 (second compound 0.316 µM): < 5.00 | pIC50 (second compound 1 µM): < 5.00 | pIC50 (second compound 3.16 µM): < 5.00 | pIC50 (second compound 10 µM): < 5.00 | viability, T/C [1]: 102% | viability, T/C [2]: 94.9% | viability, T/C [3]: 106% | viability, T/C [4]: 95.5% | viability, T/C [5]: 101% | viability, T/C [6]: 83.6% | viability, T/C [7]: 108% | viability, T/C [8]: 91.4% | viability, T/C [9]: 99.6% | viability, T/C [10]: 104% | viability, T/C [11]: 93.6% | viability, T/C [12]: 89.2% | viability, T/C [13]: 83.3% | viability, T/C [14]: 105% | viability, T/C [15]: 101% | viability, T/C [16]: 89.5% | viability, T/C [17]: 113% | viability, T/C [18]: 98.5% | viability, T/C [19]: 87.9% | viability, T/C [20]: 89.8% | viability, T/C [21]: 104% | viability, T/C [22]: 102% | viability, T/C [23]: 100% | viability, T/C [24]: 97.7% | viability, T/C [25]: 91.7% | viability, T/C [26]: 90.2% | viability, T/C [27]: 105% | viability, T/C [28]: 103% | viability, T/C [29]: 103% | viability, T/C [30]: 96.3% | viability, T/C [31]: 96% | viability, T/C [32]: 94.7% | viability, T/C [33]: 104% | viability, T/C [34]: 104% | viability, T/C [35]: 89% | viability, T/C [36]: 93.3%

CC1COCCN1c1cc(-c2ccnn2C)c2ccnc(-c3ccn[nH]3)c2n1 (stereo not given) + Cc1[nH]c2ccc(F)cc2c1-c1nc2c3cccnc3c3ncccc3c2[nH]1
pIC50 (second compound 0.0316 µM): 7.30 | pIC50 (second compound 0.1 µM): 7.31 | pIC50 (second compound 0.316 µM): 7.30 | pIC50 (second compound 1 µM): > 7.50 | pIC50 (second compound 3.16 µM): 7.39 | pIC50 (second compound 10 µM): 7.47 | viability, T/C [1]: 74.1% | viability, T/C [2]: 15% | viability, T/C [3]: 7.54% | viability, T/C [4]: 5% | viability, T/C [5]: 5.42% | viability, T/C [6]: 5.79% | viability, T/C [7]: 70.8% | viability, T/C [8]: 15% | viability, T/C [9]: 8.57% | viability, T/C [10]: 5.57% | viability, T/C [11]: 6.67% | viability, T/C [12]: 6.18% | viability, T/C [13]: 72.2% | viability, T/C [14]: 17.8% | viability, T/C [15]: 7.48% | viability, T/C [16]: 5.56% | viability, T/C [17]: 6.42% | viability, T/C [18]: 6.89% | viability, T/C [19]: 49% | viability, T/C [20]: 13.3% | viability, T/C [21]: 6.83% | viability, T/C [22]: 5.52% | viability, T/C [23]: 7.58% | viability, T/C [24]: 7.98% | viability, T/C [25]: 59.7% | viability, T/C [26]: 13.9% | viability, T/C [27]: 7.5% | viability, T/C [28]: 6.04% | viability, T/C [29]: 7.48% | viability, T/C [30]: 7.66% | viability, T/C [31]: 52.1% | viability, T/C [32]: 11.5% | viability, T/C [33]: 8.02% | viability, T/C [34]: 5.7% | viability, T/C [35]: 5.81% | viability, T/C [36]: 6.85%

CC1COCCN1c1cc(C2(S(C)(=N)=O)CC2)nc(-c2ccnc3[nH]ccc23)n1 (stereo not given) + Cc1[nH]c2ccc(F)cc2c1-c1nc2c3cccnc3c3ncccc3c2[nH]1
pIC50 (second compound 0.0316 µM): 6.10 | pIC50 (second compound 0.1 µM): 6.08 | pIC50 (second compound 0.316 µM): 5.92 | pIC50 (second compound 1 µM): 5.80 | pIC50 (second compound 3.16 µM): 5.94 | pIC50 (second compound 10 µM): 5.92 | viability, T/C [1]: 109% | viability, T/C [2]: 104% | viability, T/C [3]: 105% | viability, T/C [4]: 35.6% | viability, T/C [5]: 11.1% | viability, T/C [6]: 10.7% | viability, T/C [7]: 109% | viability, T/C [8]: 88.3% | viability, T/C [9]: 87.7% | viability, T/C [10]: 42.6% | viability, T/C [11]: 13.2% | viability, T/C [12]: 4.44% | viability, T/C [13]: 87.7% | viability, T/C [14]: 89.4% | viability, T/C [15]: 117% | viability, T/C [16]: 58.1% | viability, T/C [17]: 10.9% | viability, T/C [18]: 8.17% | viability, T/C [19]: 91.1% | viability, T/C [20]: 85.8% | viability, T/C [21]: 101% | viability, T/C [22]: 74.2% | viability, T/C [23]: 15% | viability, T/C [24]: 8.18% | viability, T/C [25]: 102% | viability, T/C [26]: 92.4% | viability, T/C [27]: 97.5% | viability, T/C [28]: 53.5% | viability, T/C [29]: 16.3% | viability, T/C [30]: 7.22% | viability, T/C [31]: 90.1% | viability, T/C [32]: 98.2% | viability, T/C [33]: 96.9% | viability, T/C [34]: 57.2% | viability, T/C [35]: 12.8% | viability, T/C [36]: 6.82%
